Reference: ChEMBL document CHEMBL1140514, “Some new acyclic nucleotide analogues as antiviral prodrugs: synthesis and bioactivities in vitro” (Bioorg Med Chem Lett, 2007)

Experiments:
Hepatitis B virus = assay: Antiviral activity against Hepatitis B virus infected human HepG2 cells after 9 days by MTT assay; format: functional, organism-based; settings: HepG2, 216 h
[1] = test system: Human immunodeficiency virus 1; assay: Antiviral activity against HIV1 3B in MT4 cells after 4 days by MTT assay; format: functional
HepG2 = assay: Cytotoxicity against human HepG2 cells after 9 days by MTT assay; format: functional, cell-based; settings: HepG2, 216 h
[2] = Therapeutic index, Ratio of TC50 for human HepG2 cells to IC50 for HBV-infected human HepG2 cells; format: cell-based; settings: HepG2 cells (TC50) and HBV-infected HepG2 cells (IC50)
[3] = Cytotoxicity against MT4 cells at 10 ug/ml after 4 days by MTT assay; format: cell-based; settings: human, read-out: Inhibition

Structure (SMILES)	IC50 (Hepatitis B virus)	TC50 [1]	IC50 (HepG2)	selectivity ratio [2]	cytotoxicity at 96 h, 10 ug/ml [3]
Nc1ncnc2c1ncn2CCOCP(=O)(OCOC(=O)OC1CCCC1)OCOC(=O)OC1CCCC1.O=C(O)/C=C/C(=O)O	2.46 µM	22.1 µM	3.51 µM	–	–
CC(C)OC(=O)OCOP(=O)(CO[C@H](C)Cn1cnc2c(N)ncnc21)OCOC(=O)OC(C)C.O=C(O)/C=C/C(=O)O [TENOFOVIR DISOPROXIL FUMARATE]	5.1 µM	55.2 µM	2.31 µM	10.8	–
C=CCOC(=O)OCOP(=O)(COCCn1cnc2c(N)ncnc21)OCOC(=O)OCC=C.O=C(O)/C=C/C(=O)O	8.2 µM	24.6 µM	> 30 µM	–	22.8%
C=CCOC(=O)OCOP(=O)(CO[C@H](C)Cn1cnc2c(N)ncnc21)OCOC(=O)OCC=C.O=C(O)/C=C/C(=O)O	7.98 µM	30.9 µM	1.61 µM	–	–
Nc1ncnc2c1ncn2CCOCP(=O)(O)O [ADEFOVIR]	42.1 µM	–	–	–	–
Nc1ncnc2c1ncn2CCOCP(=O)(OCOC(=O)OC1CCCCC1)OCOC(=O)OC1CCCCC1.O=C(O)/C=C/C(=O)O	5.33 µM	63.2 µM	23.1 µM	11.9	–
C=CCOC(=O)OCOP(=O)(O)COCCn1cnc2c(N)ncnc21.O=C(O)/C=C/C(=O)O	10.6 µM	0.67 10^3uM	23.7 µM	–	–
C[C@H](Cn1cnc2c(N)ncnc21)OCP(=O)(OCOC(=O)OCc1ccccc1)OCOC(=O)OCc1ccccc1.O=C(O)/C=C/C(=O)O	5.5 µM	70.1 µM	> 30 µM	12.7	28.1%
Nc1ncnc2c1ncn2CCOCP(=O)(O)OCOC(=O)OCc1ccccc1.O=C(O)/C=C/C(=O)O	43 µM	0.59 10^3uM	> 30 µM	13.7	9%
Nc1ncnc2c1ncn2CCOCP(=O)(OCOC(=O)OCc1ccccc1)OCOC(=O)OCc1ccccc1.O=C(O)/C=C/C(=O)O	2.15 µM	26.5 µM	> 30 µM	12.3	24.9%
Nc1nc(=O)n([C@@H]2CS[C@H](CO)O2)cc1F [EMTRICITABINE]	–	–	27.7 µM	–	–
C[C@H](Cn1cnc2c(N)ncnc21)OCP(=O)(O)O [TENOFOVIR ANHYDROUS]	12.3 µM	0.39 10^3uM	–	31.4	–
C[C@H](Cn1cnc2c(N)ncnc21)OCP(=O)(OCOC(=O)OC1CCCCC1)OCOC(=O)OC1CCCCC1.O=C(O)/C=C/C(=O)O	5.94 µM	92.8 µM	17.5 µM	15.6	–
C[C@H](Cn1cnc2c(N)ncnc21)OCP(=O)(OCOC(=O)OC1CCCC1)OCOC(=O)OC1CCCC1.O=C(O)/C=C/C(=O)O	7.2 µM	80.2 µM	> 30 µM	–	25.5%
